The source of these data is US9783510B2, “Small molecule mediated transcriptional induction of E-cadherin” (Vanderbilt University, priority 2014, dated 2017).

Structures are written as SMILES. pEC50: −log10 of the molar value.

Test [1] has as its system E-cadherin expression in SW620 cells. As to the kind of experiment: E-cadherin expression, in-cell Western (ICW), SW620 cells. It counts as cell-based. To be noted: Homo sapiens. The procedure, abridged: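 SW620 cells were treated with compound for 24 h in RPMI 1640 (single-point at 10 μM; EC50 also determined), in quadruplicate. After methanol fixation, in-cell Western with anti-E-cadherin and anti-α-tubulin primaries and IRDye 800/700 secondaries. Read on an Odyssey IR imager.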

The next test has as its system HMEC-1 cells. As to the kind of experiment: E-cadherin, VE-cadherin, Vimentin and histone marks in HMEC-1 cells (qPCR, Western blot). It counts as cell-based, human. To be noted: HMEC-1, 10 μM, by 12 and 24 hours after treatment. For orientation: Real-time PCR tracks product formation cycle by cycle.

As for `O=C(NCCCNC(=O)c1cccnc1O)c1cc(-c2ccccc2)on1` [Compound 13, N-(3-(2-hydroxynicotinamido)propyl)-5-phenylisoxazole-3-carboxamide], the fold induction (usually the ratio of treated to control signal) at 10 µM in test [1] (SW-620, 24 h, change in expression level of E-cadherin in response to 10 μM compound, 24 hours, SW620 cells) worked out at 5.23. The pEC50 (in general, the EC50 on a negative log10 scale, so that one unit is a factor of ten) in test [1] (SW-620, inducement of E-cadherin expression in SW620 cells) was 5.39. Also, the “induced expression of E-cadherin mRNA species” value in the test on HMEC-1 cells is on record as more than 5 ×.
